Results published in article PMC5524405 (PLoS ONE, 2017).

Columns and labels:
human B cells = assay: Antigen receptor-dependent signaling and functional endpoints in human B cells (summary); type: cell-based; conditions: read-out: IC50, antigen receptor-dependent signaling and functional endpoints (cytokine production, co-stimulatory molecule expression, proliferation)
[1] = tested on: B cells in human whole blood; assay: Human whole blood BCR-stimulated CD69 expression on B cells; type: cell-based; conditions: B-cell
Excerpt: The cells were stained with FITC-conjugated mouse anti-human CD20 (BD Pharmingen) and PE-conjugated mouse anti-human CD69 monoclonal antibody (BD Pharmingen), lysed and fixed, then washed. The amount of CD69 expression was quantitated by MFI after gating on the CD20-positive B-cell population as measured by FACS analysis.
The cells were stained with fluorescein isothiocyanate (FITC)-conjugated mouse anti-human CD20 (BD Pharmingen, San Diego, CA, USA) and phycoerythrin (PE)-conjugated mouse anti-human CD69 monoclonal antibody (BD Pharmingen), lysed, fixed, and then washed. The amount of CD69 expression was quantitated by MFI after gating on the CD20-positive B-cell population measured by FACS analysis.

[2] = tested on: basophils in human whole blood; assay: Human whole blood FcεRI (anti-IgE)-stimulated CD63 expression on basophils; type: cell-based; conditions: read-out: IC50, FcεRI-driven CD63 surface expression on basophils
Protocol: The blood was lysed and fixed, then washed. The percentage of CD63+ cells was measured after gating on the CCR3-positive basophil population by FACS analysis.
The blood was lysed, fixed, and then washed. The percentage of CD63+ cells was measured after gating on the C-C chemokine receptor type 3-positive basophil population by FACS analysis.

Lck = Lck (Homo sapiens, UniProt P06239); assay: Lck enzymatic assay; conditions: read-out: Biochemical IC50, Lck
Lck, sequence (P06239 whole entry, species assumed): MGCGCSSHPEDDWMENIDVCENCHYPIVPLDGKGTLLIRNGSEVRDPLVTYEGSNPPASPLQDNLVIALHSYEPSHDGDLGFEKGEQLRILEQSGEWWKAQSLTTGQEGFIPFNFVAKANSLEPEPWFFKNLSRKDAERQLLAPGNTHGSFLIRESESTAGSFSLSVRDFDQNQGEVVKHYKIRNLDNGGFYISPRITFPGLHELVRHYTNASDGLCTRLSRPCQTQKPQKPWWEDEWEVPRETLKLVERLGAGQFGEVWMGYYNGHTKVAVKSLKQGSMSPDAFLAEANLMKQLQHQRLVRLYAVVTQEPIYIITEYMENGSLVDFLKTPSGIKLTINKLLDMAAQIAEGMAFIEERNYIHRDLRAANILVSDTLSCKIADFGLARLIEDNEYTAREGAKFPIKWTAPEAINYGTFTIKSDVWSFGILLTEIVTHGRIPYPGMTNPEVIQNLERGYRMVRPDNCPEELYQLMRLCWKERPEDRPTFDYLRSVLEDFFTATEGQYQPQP

[3] = tested on: human peripheral blood B cells; assay: BCR-stimulated CD86 expression on human peripheral blood B cells; type: cell-based; conditions: B-cell, BCR (anti-IgM)
Excerpt: (§1) The cells were stained with fluorescein isothiocyanate (FITC)-conjugated mouse anti-human CD20 antibody (BD Pharmingen, San Diego, CA, USA) and either allophycocyanin (APC)-conjugated mouse anti-human CD86 monoclonal antibody (BD Pharmingen) or phycoerythrin (PE)-conjugated mouse anti-human CD69 monoclonal antibody (BD Pharmingen). The amount of CD86 or CD69 expression was quantitated by median fluorescence intensity (MFI) after gating on the CD20-positive B-cell population using fluorescence-activated cell sorting (FACS) analysis. For analogous experiments measuring the effect of CD40 or Toll-like receptor 4 (TLR4) stimulation on these endpoints, either human IZ-CD40L or lipopolysaccharide (LPS) was used to stimulate the cells.

Src = Src (Homo sapiens, UniProt P12931); assay: Src enzymatic assay
Src, sequence (P12931 whole entry, species assumed): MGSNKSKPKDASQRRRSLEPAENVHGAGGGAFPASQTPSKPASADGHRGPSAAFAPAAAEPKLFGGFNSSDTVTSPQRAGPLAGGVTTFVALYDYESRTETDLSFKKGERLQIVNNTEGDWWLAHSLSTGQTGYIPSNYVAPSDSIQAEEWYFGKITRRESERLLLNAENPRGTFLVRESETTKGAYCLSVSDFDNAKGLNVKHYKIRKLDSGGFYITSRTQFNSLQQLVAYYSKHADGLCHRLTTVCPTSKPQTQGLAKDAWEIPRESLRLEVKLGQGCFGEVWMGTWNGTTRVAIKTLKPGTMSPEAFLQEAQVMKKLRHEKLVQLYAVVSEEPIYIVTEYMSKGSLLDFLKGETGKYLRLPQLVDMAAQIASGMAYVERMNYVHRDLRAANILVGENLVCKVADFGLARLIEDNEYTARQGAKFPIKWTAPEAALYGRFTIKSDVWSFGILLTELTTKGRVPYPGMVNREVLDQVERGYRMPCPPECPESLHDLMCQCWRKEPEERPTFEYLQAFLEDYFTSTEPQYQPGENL
Excerpt: (§6) Product turnover was quantitated using a Caliper LabChip 3000 (Caliper Life Sciences, Hopkinton, MA, USA). Similar assays were used for other kinases (Tec kinase, interleukin [IL]-2-inducible T-cell kinase, B-lymphocyte kinase, T cell-expressed kinase, and bone marrow-expressed kinase), with ATP concentrations equal to the apparent Michaelis constant (KM^app) for each kinase. […] [^33P]-ATP was used as a substrate at a concentration equal to KM^app, and incorporation of radiolabel into peptide or protein substrates was measured.

FGR = FGR (Homo sapiens, UniProt P09769); assay: FGR enzymatic assay; conditions: read-out: Biochemical IC50, FGR
FGR, sequence (P09769 whole entry, species assumed): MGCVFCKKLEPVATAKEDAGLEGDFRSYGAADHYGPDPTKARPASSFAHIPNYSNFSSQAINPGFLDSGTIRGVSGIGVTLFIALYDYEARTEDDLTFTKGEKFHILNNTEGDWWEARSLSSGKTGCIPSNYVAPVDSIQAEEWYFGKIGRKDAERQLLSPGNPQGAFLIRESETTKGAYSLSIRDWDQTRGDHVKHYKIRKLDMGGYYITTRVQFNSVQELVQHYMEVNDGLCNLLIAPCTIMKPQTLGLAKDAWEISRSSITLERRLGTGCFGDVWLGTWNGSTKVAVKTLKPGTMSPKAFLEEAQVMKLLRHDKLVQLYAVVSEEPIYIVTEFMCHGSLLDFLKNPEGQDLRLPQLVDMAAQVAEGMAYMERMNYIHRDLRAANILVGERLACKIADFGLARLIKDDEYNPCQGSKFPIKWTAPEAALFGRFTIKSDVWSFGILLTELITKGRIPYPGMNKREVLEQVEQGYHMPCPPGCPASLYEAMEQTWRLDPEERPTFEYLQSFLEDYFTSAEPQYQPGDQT

Human recombinant BTK = Human recombinant BTK (Homo sapiens, UniProt Q06187); assay: Human recombinant BTK enzymatic assay (Caliper LabChip); conditions: 20 μM ATP, read-out: Biochemical IC50, BTK
Human recombinant BTK, sequence (Q06187 whole entry): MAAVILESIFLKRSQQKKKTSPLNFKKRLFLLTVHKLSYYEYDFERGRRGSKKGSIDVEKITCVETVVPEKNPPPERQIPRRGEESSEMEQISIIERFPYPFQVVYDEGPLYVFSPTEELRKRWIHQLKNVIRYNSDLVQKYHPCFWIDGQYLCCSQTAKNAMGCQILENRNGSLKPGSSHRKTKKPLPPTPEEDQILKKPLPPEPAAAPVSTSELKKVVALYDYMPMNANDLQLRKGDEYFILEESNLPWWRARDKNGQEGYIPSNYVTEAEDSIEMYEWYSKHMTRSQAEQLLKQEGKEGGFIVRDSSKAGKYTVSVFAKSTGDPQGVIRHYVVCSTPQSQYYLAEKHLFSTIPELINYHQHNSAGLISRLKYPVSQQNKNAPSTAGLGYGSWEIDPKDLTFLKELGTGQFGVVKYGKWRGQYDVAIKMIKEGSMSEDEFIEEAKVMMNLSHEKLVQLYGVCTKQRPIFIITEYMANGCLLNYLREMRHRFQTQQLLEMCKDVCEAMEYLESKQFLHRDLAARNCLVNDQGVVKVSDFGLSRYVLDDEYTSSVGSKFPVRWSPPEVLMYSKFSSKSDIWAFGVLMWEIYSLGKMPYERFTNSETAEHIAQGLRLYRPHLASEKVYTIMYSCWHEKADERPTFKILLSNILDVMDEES
Excerpt: as §6

[4] = tested on: CD27+CD20+ memory B cells (peripheral blood); assay: BCR-stimulated CD86 expression on memory B cells; type: cell-based; conditions: Homo sapiens, B-cell, BCR (anti-IgM)
Excerpt: as §1

ITK = ITK (Homo sapiens, UniProt Q08881); assay: ITK enzymatic assay; conditions: ATP at apparent KM; read-out: Biochemical IC50, ITK
ITK, sequence (Q08881 whole entry, species assumed): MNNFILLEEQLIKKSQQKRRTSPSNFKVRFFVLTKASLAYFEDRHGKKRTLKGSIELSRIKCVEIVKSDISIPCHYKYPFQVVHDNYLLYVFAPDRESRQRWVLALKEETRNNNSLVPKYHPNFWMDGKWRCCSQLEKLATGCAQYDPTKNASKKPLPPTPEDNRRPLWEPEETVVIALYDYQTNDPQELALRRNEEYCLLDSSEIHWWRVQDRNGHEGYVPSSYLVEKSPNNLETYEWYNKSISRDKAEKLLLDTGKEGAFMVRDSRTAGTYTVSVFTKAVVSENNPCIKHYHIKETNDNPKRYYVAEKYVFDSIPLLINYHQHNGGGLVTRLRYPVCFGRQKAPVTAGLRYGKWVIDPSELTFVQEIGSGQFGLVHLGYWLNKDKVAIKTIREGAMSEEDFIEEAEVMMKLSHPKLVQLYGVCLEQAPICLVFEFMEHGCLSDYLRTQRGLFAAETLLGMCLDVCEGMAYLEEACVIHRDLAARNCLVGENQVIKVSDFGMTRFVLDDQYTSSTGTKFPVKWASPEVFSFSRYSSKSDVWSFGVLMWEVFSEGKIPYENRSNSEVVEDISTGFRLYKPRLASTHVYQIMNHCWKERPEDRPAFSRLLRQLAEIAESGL
Excerpt: as §6

[5] = tested on: human peripheral blood B cells; assay: CD40L-induced CD69 expression on peripheral blood B cells; type: cell-based; conditions: B-cell, CD40 (CD40L)
Excerpt: as §1

Ramos B cells [6] = assay: BCR-stimulated PLCγ2 phosphorylation in Ramos B cells; type: cell-based; conditions: Homo sapiens, anti-IgM, read-out: IC50, BTK-catalyzed phosphorylation of PLCγ2
Protocol: The cells were pelleted and lysed, and PLCγ2 levels were measured by immunoblot using rabbit anti-human phosphoY759-PLCγ2 (Cell Signaling Technology, Danvers, MA, USA) and analyzed using the Odyssey Infrared Imaging System (Li-Cor Biosciences, Lincoln, NE, USA) with normalization to an actin control to ensure consistent loading.

IGF1R = IGF1R (Homo sapiens, UniProt P08069); assay: IGF1R enzymatic assay; conditions: read-out: Biochemical IC50, IGF1R
Excerpt: as §6

[7] = tested on: human peripheral blood mononuclear cells; assay: IC-stimulated IL-6 production in peripheral blood mononuclear cells; type: cell-based; conditions: PBMC, FcγR (immune complex)
Protocol: (§2) TNF-α and IL-6 levels were measured using enzyme-linked immunosorbent assay (ELISA; TNF-α OptEIA, BD Biosciences; IL-6 OptEIA, BD Biosciences). For analogous experiments measuring the effect of Toll-like receptor 4 stimulation on these endpoints, lipopolysaccharide (Sigma-Aldrich, St. Louis, MO, USA) was used as the stimulus.

CSK = CSK (Homo sapiens, UniProt P41240); assay: CSK enzymatic assay
CSK, sequence (P41240 whole entry, species assumed): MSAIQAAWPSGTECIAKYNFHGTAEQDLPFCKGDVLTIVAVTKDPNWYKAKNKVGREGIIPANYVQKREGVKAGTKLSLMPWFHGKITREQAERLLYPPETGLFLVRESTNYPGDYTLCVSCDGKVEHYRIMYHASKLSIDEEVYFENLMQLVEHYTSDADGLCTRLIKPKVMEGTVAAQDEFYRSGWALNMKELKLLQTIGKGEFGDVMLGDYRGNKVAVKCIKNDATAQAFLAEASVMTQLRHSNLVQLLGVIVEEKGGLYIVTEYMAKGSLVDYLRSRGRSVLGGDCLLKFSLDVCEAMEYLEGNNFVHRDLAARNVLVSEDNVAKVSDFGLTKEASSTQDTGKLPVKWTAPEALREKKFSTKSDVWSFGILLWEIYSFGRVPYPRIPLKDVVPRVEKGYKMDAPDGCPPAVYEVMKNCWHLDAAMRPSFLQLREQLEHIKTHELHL
Protocol: (§7) Product turnover was quantitated using a Caliper LabChip 3000 (Caliper Life Sciences, Hopkinton, MA, USA). […] [^33P]-ATP was used as a substrate at a concentration equal to KM^app, and incorporation of radiolabel into peptide or protein substrates was measured.

[8] = tested on: KLH-immunized BALB/c mice; assay: Primary anti-KLH antibody responses in mice; type: in vivo, mouse
Protocol: Activity against a KLH-induced antibody response in mice was used as a measure of antigen-driven B-cell responses. Female BALB/c mice (8–12 weeks old) were immunized intraperitoneally (IP) with 250 μg of KLH (Pierce, Rockford, IL, USA) in phosphate-buffered saline on day 0. […] Captured anti-KLH antibodies were detected using horseradish peroxidase-conjugated antibody specific for mouse IgM or IgG (Southern Biotechnology Associates, Birmingham, AL, USA) and the 3,3′,5,5′-tetramethylbenzidine peroxidase substrate system (Kirkegaard and Perry Laboratories, Gaithersburg, MD, USA). Optical densities of developed plates were quantitated in a SpectraMax Plus ELISA plate reader (Molecular Devices, Sunnyvale, CA, USA). Sera collected from mice on day 7 or day 14 after immunization with KLH were pooled and used as a standard comparator.

[9] = tested on: B cells in mouse whole blood; assay: Mouse whole blood BCR-stimulated CD69 expression on B cells; type: cell-based
Protocol: For mouse whole blood, stimulation used AffiniPure F(ab’)2 fragment goat anti-mouse IgG + IgM (Jackson ImmunoResearch) at 200 μg/mL and 1 ng/mL mouse IL-4 (R&D Systems, Minneapolis, MN, USA) for 5 hours at 37°C with agitation. After staining with APC rat anti-mouse CD19 antibody (BD Biosciences) to identify the B cells, the amount of CD69 expression was quantitated by FACS using FITC-conjugated anti-mouse CD69 monoclonal antibody (BD Biosciences).

[10] = tested on: human peripheral blood mononuclear cells; assay: IC-stimulated TNF-α production in peripheral blood mononuclear cells; type: cell-based; conditions: PBMC, FcγR (immune complex)
Protocol: as §2

human tonsillar B cells [11] = assay: cells; conditions: B-cell, read-out: IC50, Proliferation
Protocol: The cells were then labeled with [^3H]-thymidine and incubated overnight at 37°C. Cells were then harvested onto filter plates and the amount of [^3H]-thymidine incorporation, as a measure of B-cell proliferation, was determined using liquid scintillation counting.

Ramos B cells [12] = assay: BCR-stimulated calcium flux in Ramos B cells; type: cell-based; conditions: Homo sapiens, BCR (anti-IgM), read-out: IC50, Ca2+ flux
Protocol: BCR-stimulated calcium flux in Ramos B cells: Human Ramos (RA1) B cells, a Burkitt’s lymphoma cell line (ATCC, CRL-1596), pre-loaded with calcium indicator dye (BD Biosciences, San Jose, CA, USA) in media containing 10% FBS, were plated on black clear-bottom assay plates at a density of 1 × 10^6 cells/mL (150,000 cells per well).

CIA DBA/1 mice [13] = assay: CIA mouse model, therapeutic dosing, with or without etanercept; type: in vivo; conditions: for Clinical score reduction at end of study: therapeutic (from day 21)
Protocol: Induction of CIA was performed as described previously. In brief, male DBA/1 mice (Harlan Laboratories, 8–10 weeks old) were injected subcutaneously at the base of the tail with bovine type II collagen (200 μg) admixed with reconstituted Sigma Adjuvant System (Sigma-Aldrich). The mice were boosted 21 days later in the same manner. […]
(§3) Threshold settings were optimized using histomorphometric methods.

[14] = tested on: human peripheral blood mononuclear cells; assay: LPS (TLR4)-stimulated TNF-α in peripheral blood mononuclear cells; type: cell-based; conditions: PBMC
Protocol: as §2

[15] = tested on: human monocytic osteoclast precursor cells; assay: RANK-L-induced osteoclastogenesis; type: cell-based; conditions: TRAP-positive multinucleated cells, 9 days in culture
Protocol: After 9 days in culture, cells were fixed and stained for tartrate-resistant acid phosphatase (TRAP; Sigma-Aldrich, St. Louis, MO, USA), and the number of TRAP-positive multinucleated cells (>2 nuclei per cell) was measured as described previously.

BLK = BLK (Homo sapiens, UniProt P51451); assay: BLK enzymatic assay; conditions: read-out: Biochemical IC50, BLK; ATP at apparent KM
BLK, sequence (P51451 whole entry, species assumed): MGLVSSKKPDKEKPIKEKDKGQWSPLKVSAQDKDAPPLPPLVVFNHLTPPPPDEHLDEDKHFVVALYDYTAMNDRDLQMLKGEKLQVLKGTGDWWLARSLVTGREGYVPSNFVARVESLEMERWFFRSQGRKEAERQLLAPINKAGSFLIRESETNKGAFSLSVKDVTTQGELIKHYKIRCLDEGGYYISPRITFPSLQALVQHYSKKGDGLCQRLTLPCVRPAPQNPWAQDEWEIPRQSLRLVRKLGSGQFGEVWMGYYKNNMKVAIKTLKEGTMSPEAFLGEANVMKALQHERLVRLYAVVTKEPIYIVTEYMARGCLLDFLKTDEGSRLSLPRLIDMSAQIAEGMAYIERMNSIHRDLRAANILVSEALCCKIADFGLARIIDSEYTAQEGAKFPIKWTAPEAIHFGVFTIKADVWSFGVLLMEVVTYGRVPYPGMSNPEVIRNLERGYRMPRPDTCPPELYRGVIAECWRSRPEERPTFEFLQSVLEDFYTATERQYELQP
Protocol: as §7

CIA DBA/1 mice [16] = assay: CIA mouse model, preventative dosing, with or without murine CTLA-4-Ig; type: in vivo; conditions: BMS-986142 10 mg/kg PO QD
Protocol: (§4) Induction of CIA was performed as described previously. In brief, male DBA/1 mice (Harlan Laboratories, 8–10 weeks old) were injected subcutaneously at the base of the tail with bovine type II collagen (200 μg) admixed with reconstituted Sigma Adjuvant System (Sigma-Aldrich). The mice were boosted 21 days later in the same manner. […] Dosing proceeded from day 0 through study completion (36 days).
as §3

CIA DBA/1 mice [17] = assay: Collagen-induced arthritis (CIA) mouse model, preventative dosing, with or without MTX; type: in vivo
Protocol: as §4, §3

[18] = tested on: human peripheral blood B cells; assay: CD40L-induced CD86 expression on peripheral blood B cells; type: cell-based; conditions: B-cell, CD40 (CD40L)
Excerpt: as §1

human tonsillar B cells [19] = assay: BCR-stimulated IL-6 from human tonsillar B cells; type: cell-based; conditions: B-cell, BCR (anti-IgM)
Protocol: (§5) After 1 hour of incubation at 37°C, the cells were stimulated with 40 μg/mL AffiniPure F(ab’)2 fragment goat anti-human IgM (Jackson ImmunoResearch) and 10 ng/mL IL-4 (Peprotech). After an additional 4.5 hours of incubation, the supernatants were collected and the levels of IL-6 and TNF-α were measured using an enzyme immunoassay.

Txk = Txk (Homo sapiens, UniProt P42681); assay: Txk enzymatic assay; conditions: ATP at apparent KM; read-out: Biochemical IC50, Txk
Txk, sequence (P42681 whole entry, species assumed): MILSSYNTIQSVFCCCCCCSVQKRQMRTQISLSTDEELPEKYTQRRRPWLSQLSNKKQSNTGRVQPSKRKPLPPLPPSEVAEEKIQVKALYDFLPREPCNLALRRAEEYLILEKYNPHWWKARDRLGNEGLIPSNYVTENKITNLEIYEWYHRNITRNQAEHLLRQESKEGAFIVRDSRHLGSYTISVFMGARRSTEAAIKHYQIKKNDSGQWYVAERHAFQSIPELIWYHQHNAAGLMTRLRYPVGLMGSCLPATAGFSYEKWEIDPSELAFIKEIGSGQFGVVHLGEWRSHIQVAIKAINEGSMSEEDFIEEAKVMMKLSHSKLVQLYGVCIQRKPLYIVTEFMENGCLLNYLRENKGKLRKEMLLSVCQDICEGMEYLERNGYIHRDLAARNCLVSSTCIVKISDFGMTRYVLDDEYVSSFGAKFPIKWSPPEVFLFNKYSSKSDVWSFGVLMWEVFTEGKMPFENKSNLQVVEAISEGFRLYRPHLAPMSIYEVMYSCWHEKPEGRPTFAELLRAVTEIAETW
Protocol: as §7

Tec = Tec (Homo sapiens, UniProt P42680); assay: Tec kinase enzymatic assay; conditions: ATP at apparent KM; read-out: Biochemical IC50, Tec
Tec, sequence (P42680 whole entry): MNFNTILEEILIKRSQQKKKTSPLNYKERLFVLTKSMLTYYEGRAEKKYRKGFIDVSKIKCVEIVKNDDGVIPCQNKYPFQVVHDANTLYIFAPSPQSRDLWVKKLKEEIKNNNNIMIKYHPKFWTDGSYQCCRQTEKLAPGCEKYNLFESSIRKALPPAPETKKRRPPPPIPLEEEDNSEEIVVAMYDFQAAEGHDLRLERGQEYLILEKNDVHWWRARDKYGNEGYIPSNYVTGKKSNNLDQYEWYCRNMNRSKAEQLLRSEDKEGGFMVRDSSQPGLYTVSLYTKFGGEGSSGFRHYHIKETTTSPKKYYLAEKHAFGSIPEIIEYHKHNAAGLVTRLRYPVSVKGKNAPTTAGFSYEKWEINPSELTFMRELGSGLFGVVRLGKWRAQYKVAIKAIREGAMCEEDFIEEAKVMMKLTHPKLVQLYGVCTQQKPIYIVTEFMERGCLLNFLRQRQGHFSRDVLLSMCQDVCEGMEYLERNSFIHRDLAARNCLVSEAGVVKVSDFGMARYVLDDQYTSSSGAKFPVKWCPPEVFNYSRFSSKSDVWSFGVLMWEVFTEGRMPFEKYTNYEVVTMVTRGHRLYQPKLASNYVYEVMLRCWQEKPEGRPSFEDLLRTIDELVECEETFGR
Excerpt: as §6

BMX = BMX (Homo sapiens, UniProt P51813); assay: BMX enzymatic assay; conditions: read-out: Biochemical IC50, BMX; ATP at apparent KM
Protocol: as §7

CAIA BALB/c mice = assay: Collagen antibody-induced arthritis (CAIA) mouse model; type: in vivo
Protocol: Three days later, mice were injected IP with 1.25 mg/kg LPS from Escherichia coli O111:B4 (Sigma-Aldrich). Mice were monitored daily for development and severity of paw inflammation as described previously [24].

human tonsillar B cells [20] = assay: BCR-stimulated TNF-α from human tonsillar B cells; type: cell-based; conditions: B-cell, BCR (anti-IgM)
Protocol: as §5

Question: With `Cc1c(-c2c(F)cc(C(N)=O)c3[nH]c4c(c23)CC[C@H](C(C)(C)O)C4)cccc1-n1c(=O)c2cccc(F)c2n(C)c1=O` [BMS-986142, 6-fluoro-5-(R)-(3-(S)-(8-fluoro-1-methyl-2,4-dioxo-1,2-dihydroquinazolin-3(4H)-yl)-2-methylphenyl)-2-(S)-(2-hydroxypropan-2-yl)-2,3,4,9-tetrahydro-1H-carbazole-8-carboxamide] as the compound, how does the IC50 (human B cells) read?
Answer: ≤ 5 nM

Question: And the IC50 [1]?
Answer: 90 nM

Question: And the IC50 [2]?
Answer: 89 nM

Question: And the IC50 (Lck)?
Answer: 71 nM

Question: And the IC50 [3]?
Answer: 4 ± 3 nM

Question: And the IC50 (Src)?
Answer: 1110 nM

Question: And the IC50 (FGR)?
Answer: 81 nM

Question: What about the IC50 (Human recombinant BTK) of the same compound?
Answer: 0.5 nM

Question: What about the IC50 [4] of the same compound?
Answer: 3 ± 3 nM

Question: What about the IC50 (ITK) of the same compound?
Answer: 15 nM

Question: And the IC50 [5]?
Answer: > 10000 nM

Question: And the IC50 (Ramos B cells [6])?
Answer: ~20 nM

Question: What about the IC50 (IGF1R) of the same compound?
Answer: 247 nM

Question: And the IC50 [7]?
Answer: 4 ± 3 nM

Question: And the IC50 (CSK)?
Answer: 148 nM

Question: What about the “Inhibition of anti-KLH IgM response” value ([8]; 30 mg/kg PO QD, day 7) of the same compound?
Answer: 77%

Question: What about the “Inhibition of anti-KLH IgG response” value ([8]; 30 mg/kg PO QD, day 14) of the same compound?
Answer: 87%

Question: What about the “Anti-KLH IgM and IgG antibody responses versus vehicle” value ([8]; 10 and 30 mg/kg PO QD) of the same compound?
Answer: Significant reductions

Question: And the IC50 [9]?
Answer: 140 nM

Question: What about the IC50 [10] of the same compound?
Answer: 3 ± 3 nM

Question: What about the IC50 (human tonsillar B cells [11]) of the same compound?
Answer: 3 ± 1 nM

Question: And the IC50 (Ramos B cells [12])?
Answer: 9 ± 5 nM

Question: What about the “Clinical score reduction at end of study” value (CIA DBA/1 mice [13]; 2 mg/kg) of the same compound?
Answer: 17%

Question: What about the “Clinical score reduction at end of study” value (CIA DBA/1 mice [13]; 4 mg/kg) of the same compound?
Answer: 37%

Question: And the “Clinical score reduction at end of study” value (CIA DBA/1 mice [13]; 25 mg/kg)?
Answer: 67%

Question: And the “Disease-induced remodeling/erosions and loss of bone mass compared with vehicle (micro-CT)” value (CIA DBA/1 mice [13]; therapeutic, 2, 4 and 25 mg/kg)?
Answer: dose-dependent protection

Question: And the IC50 [14]?
Answer: > 30000 nM

Question: And the “Lowest concentration at which inhibition of RANK-L-induced osteoclastogenesis was evident” value [15]?
Answer: 15 nM

Question: And the IC50 (BLK)?
Answer: 23 nM

Question: And the “Reduction of clinical scores” value (CIA DBA/1 mice [16])?
Answer: 46%

Question: What about the “Disease-associated increase in splenic CD138+B220low plasma cells” value (CIA DBA/1 mice [17]) of the same compound?
Answer: inhibited

Question: What about the “Effect on B cell numbers” value (CIA DBA/1 mice [17]) of the same compound?
Answer: did not deplete B cells

Question: And the “Expression of CD38 on plasma cells induced by disease” value (CIA DBA/1 mice [17])?
Answer: inhibited

Question: And the “Reduction in clinically evident disease at end of study” value (CIA DBA/1 mice [17]; 4 mg/kg PO QD)?
Answer: 26%

Question: What about the “Reduction in clinically evident disease at end of study” value (CIA DBA/1 mice [17]; 10 mg/kg PO QD) of the same compound?
Answer: 43%

Question: And the “Reduction in clinically evident disease at end of study” value (CIA DBA/1 mice [17]; 30 mg/kg PO QD)?
Answer: 79%

Question: What about the “Serum anti-collagen II IgG titers” value (CIA DBA/1 mice [17]; 10 and 30 mg/kg) of the same compound?
Answer: significantly inhibited

Question: What about the “Reduction in inflammation and bone resorption (histology)” value (CIA DBA/1 mice [17]; BMS-986142 4 mg/kg alone) of the same compound?
Answer: 24%

Question: And the IC50 [18]?
Answer: > 10000 nM

Question: And the IC50 (human tonsillar B cells [19])?
Answer: 5 ± 3 nM

Question: And the IC50 (Txk)?
Answer: 28 nM

Question: And the IC50 (Tec)?
Answer: 10 nM

Question: What about the IC50 (BMX) of the same compound?
Answer: 32 nM

Question: What about the “Reduction of clinical scores at study end” value (CAIA BALB/c mice; 5 mg/kg, prophylactic) of the same compound?
Answer: 72%

Question: What about the “Inhibition of clinical scores at study end” value (CAIA BALB/c mice; 20 mg/kg, prophylactic) of the same compound?
Answer: > 90%

Question: What about the “Histological bone resorption and inflammation scores of hind paws” value (CAIA BALB/c mice; 5 and 20 mg/kg) of the same compound?
Answer: effective at reducing bone resorption as well as inflammation scores

Question: And the IC50 (human tonsillar B cells [20])?
Answer: 3 ± 3 nM

Question: With `CN(Cc1cnc2nc(N)nc(N)c2n1)c1ccc(C(=O)N[C@@H](CCC(=O)O)C(=O)O)cc1` [MTX, methotrexate, reference compound] as the compound, how does the “Reduction in inflammation and bone resorption (histology)” value (CIA DBA/1 mice [17]; MTX alone) read?
Answer: 10%
